Results published in US11076594B2, “Pyrazolone compound or salt thereof, preparation method therefor, herbicide composition and use thereof” (QINGDAO KINGAGROOT CHEMICAL COMPOUNDS CO., LTD., priority 2015, dated 2021).
Values belong to the compound of their own block, whether it stands above or below them.

Assays:
Format in all cases: in vivo
Details in all cases: post-emergence spray at 4-5 leaf stage, 250 g/ha active ingredient with 450 kg/ha water, rated after 3 weeks in greenhouse
Indian mallow = assay: weed control effect in post-emergence stage (Table 1); set-up: key: Level 10: completely dead; Level 9: above 95% growth control rate; Level 8: above 90% growth control rate; Level 7: above 80% growth control rate; Level 6: above 70% growth control rate; Level 5: above 60% growth control rate; Level 4: above 50% growth control rate; Level 3: above 20% growth control rate; Level 2: 5%-20% growth control rate; Level 1: below 5% growth control rate
Procedure, shortened: (§1)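 Read-out is growth control rate based on fresh weight, determined 3 weeks after treatment. Plants raised from seed in potted soil (0.5-2 cm cover) in greenhouse were sprayed 2-3 weeks post-sowing at 4-5 leaves with acetone/Tween 80 aqueous compound solutions.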

bidens bipinnata = assay: as above; set-up: key: Level 10: completely dead; Level 9: above 95% growth control rate; Level 8: above 90% growth control rate; Level 7: above 80% growth control rate; Level 6: above 70% growth control rate; Level 5: above 60% growth control rate; Level 4: above 50% growth control rate; Level 3: above 20% growth control rate; Level 2: 5%-20% growth control rate; Level 1: below 5% growth control rate
Procedure, shortened: as §1

crab grass = assay: as above; set-up: key: Level 10: completely dead; Level 9: above 95% growth control rate; Level 8: above 90% growth control rate; Level 7: above 80% growth control rate; Level 6: above 70% growth control rate; Level 5: above 60% growth control rate; Level 4: above 50% growth control rate; Level 3: above 20% growth control rate; Level 2: 5%-20% growth control rate; Level 1: below 5% growth control rate
Procedure, shortened: as §1

echinochloa = assay: as above; set-up: key: Level 10: completely dead; Level 9: above 95% growth control rate; Level 8: above 90% growth control rate; Level 7: above 80% growth control rate; Level 6: above 70% growth control rate; Level 5: above 60% growth control rate; Level 4: above 50% growth control rate; Level 3: above 20% growth control rate; Level 2: 5%-20% growth control rate; Level 1: below 5% growth control rate
Procedure, shortened: as §1

foxtail = assay: as above; set-up: key: Level 10: completely dead; Level 9: above 95% growth control rate; Level 8: above 90% growth control rate; Level 7: above 80% growth control rate; Level 6: above 70% growth control rate; Level 5: above 60% growth control rate; Level 4: above 50% growth control rate; Level 3: above 20% growth control rate; Level 2: 5%-20% growth control rate; Level 1: below 5% growth control rate
Procedure, shortened: as §1

rorippa indica = assay: as above; set-up: key: Level 10: completely dead; Level 9: above 95% growth control rate; Level 8: above 90% growth control rate; Level 7: above 80% growth control rate; Level 6: above 70% growth control rate; Level 5: above 60% growth control rate; Level 4: above 50% growth control rate; Level 3: above 20% growth control rate; Level 2: 5%-20% growth control rate; Level 1: below 5% growth control rate
Procedure, shortened: as §1

corn = assay: post-emergence stage experiment, crop (Table 1)
Procedure, shortened: as §1

wheat = assay: post-emergence stage experiment, crop (Table 1)
Procedure, shortened: as §1

rice = assay: post-emergence stage experiment, crop (Table 1); set-up: key: Level 10: completely dead; Level 9: above 95% growth control rate; Level 8: above 90% growth control rate; Level 7: above 80% growth control rate; Level 6: above 70% growth control rate; Level 5: above 60% growth control rate; Level 4: above 50% growth control rate; Level 3: above 20% growth control rate; Level 2: 5%-20% growth control rate; Level 1: below 5% growth control rate
Procedure, shortened: as §1

SMILES: CCc1nn(CC)c(OC(=O)c2cn(C)nc2C)c1C(=O)c1ccc(C(F)(F)F)c(-n2cccn2)c1Cl [Compound 133]
- weed control effect, Indian mallow (level) (Indian mallow): 10
- weed control effect, Bidens bipinnata (level) (bidens bipinnata): 8 (Level 8: above 90% growth control rate)
- weed control effect, Crab grass (level) (crab grass): 2 (Level 2: 5%-20% growth control rate)
- weed control effect, Echinochloa (level) (echinochloa): 10
- weed control effect, Green foxtail (level) (foxtail): 8 (Level 8: above 90% growth control rate)
- weed control effect, Rorippa indica (level) (rorippa indica): 4 (Level 4: above 50% growth control rate)
- effect on crop, Corn (level) (corn): 4 (Level 4: above 50% growth control rate)
- effect on crop, Wheat (level) (wheat): 2 (Level 2: 5%-20% growth control rate)
- effect on crop, Rice (level) (rice): 8 (Level 8: above 90% growth control rate)

SMILES: CCn1ncc(C(=O)c2ccc(C(F)(F)F)c(-n3cc(C)cn3)c2Cl)c1O [Compound 136]
- weed control effect, Indian mallow (level) (Indian mallow): 10
- weed control effect, Bidens bipinnata (level) (bidens bipinnata): 10
- weed control effect, Crab grass (level) (crab grass): 7 (Level 7: above 80% growth control rate)
- weed control effect, Echinochloa (level) (echinochloa): 10
- weed control effect, Green foxtail (level) (foxtail): 10
- weed control effect, Rorippa indica (level) (rorippa indica): 10
- effect on crop, Corn (level) (corn): 1 (Level 1: below 5% growth control rate)
- effect on crop, Wheat (level) (wheat): 1 (Level 1: below 5% growth control rate)
- effect on crop, Rice (level) (rice): 10

SMILES: CCn1ncc(C(=O)c2ccc(C(F)(F)F)c(-n3cc(C)cn3)c2Cl)c1OC(=O)c1cn(C)nc1C [Compound 137]
- weed control effect, Indian mallow (level) (Indian mallow): 10
- weed control effect, Bidens bipinnata (level) (bidens bipinnata): 10
- weed control effect, Crab grass (level) (crab grass): 7 (Level 7: above 80% growth control rate)
- weed control effect, Echinochloa (level) (echinochloa): 10
- weed control effect, Green foxtail (level) (foxtail): 10
- weed control effect, Rorippa indica (level) (rorippa indica): 8 (Level 8: above 90% growth control rate)
- effect on crop, Corn (level) (corn): 5 (Level 5: above 60% growth control rate)
- effect on crop, Wheat (level) (wheat): 3 (Level 3: above 20% growth control rate)
- effect on crop, Rice (level) (rice): 8 (Level 8: above 90% growth control rate)

SMILES: CCc1nn(CC)c(O)c1C(=O)c1ccc(C(F)(F)F)c(-n2cc(C)cn2)c1Cl [Compound 142]
- weed control effect, Indian mallow (level) (Indian mallow): 5 (Level 5: above 60% growth control rate)
- weed control effect, Bidens bipinnata (level) (bidens bipinnata): 5 (Level 5: above 60% growth control rate)
- weed control effect, Crab grass (level) (crab grass): 2 (Level 2: 5%-20% growth control rate)
- weed control effect, Echinochloa (level) (echinochloa): 10
- weed control effect, Green foxtail (level) (foxtail): 6 (Level 6: above 70% growth control rate)
- weed control effect, Rorippa indica (level) (rorippa indica): 3 (Level 3: above 20% growth control rate)
- effect on crop, Corn (level) (corn): 3 (Level 3: above 20% growth control rate)
- effect on crop, Wheat (level) (wheat): 2 (Level 2: 5%-20% growth control rate)
- effect on crop, Rice (level) (rice): 7 (Level 7: above 80% growth control rate)

Now from value to compound, other results behind:

- effect on crop, Corn (level) (corn): 0
SMILES: CCc1nn(CC)c(O)c1C(=O)c1ccc(C(F)(F)F)c(-n2cccn2)c1Cl [Compound 132]
- weed control effect, Indian mallow (level) (Indian mallow): 5 (Level 5: above 60% growth control rate)
- weed control effect, Bidens bipinnata (level) (bidens bipinnata): 5 (Level 5: above 60% growth control rate)
- weed control effect, Crab grass (level) (crab grass): 3 (Level 3: above 20% growth control rate)
- weed control effect, Echinochloa (level) (echinochloa): 9 (Level 9: above 95% growth control rate)
- weed control effect, Green foxtail (level) (foxtail): 10
- weed control effect, Rorippa indica (level) (rorippa indica): 0
- effect on crop, Wheat (level) (wheat): 1 (Level 1: below 5% growth control rate)
- effect on crop, Rice (level) (rice): 5 (Level 5: above 60% growth control rate)

- effect on crop, Wheat (level) (wheat): 2 (Level 2: 5%-20% growth control rate)
SMILES: CCn1nc(C)c(C(=O)c2ccc(C(F)(F)F)c(-n3cc(C)cn3)c2Cl)c1OC(=O)c1cn(C)nc1C [Compound 139]
- weed control effect, Indian mallow (level) (Indian mallow): 3 (Level 3: above 20% growth control rate)
- weed control effect, Bidens bipinnata (level) (bidens bipinnata): 5 (Level 5: above 60% growth control rate)
- weed control effect, Crab grass (level) (crab grass): 8 (Level 8: above 90% growth control rate)
- weed control effect, Echinochloa (level) (echinochloa): 10
- weed control effect, Green foxtail (level) (foxtail): 10
- weed control effect, Rorippa indica (level) (rorippa indica): 10
- effect on crop, Corn (level) (corn): 4 (Level 4: above 50% growth control rate)
- effect on crop, Rice (level) (rice): 9 (Level 9: above 95% growth control rate)
